What was measured:
[1] = test system: Oryza sativa; assay: Relieving activity against bensulfuron-methyl induced injury to Oryza sativa (rice) assessed as growth rate at 0.1 uM (Rbv = 46 to 53%); format: functional
[2] = test system: Oryza sativa; assay: Safener indices, ratio of compound effect of Oryza sativa (rice) growth rate to relieving activity against bensulfuron-methyl induced injury to Oryza sativa growth rate at 10 uM
[3] = test system: Oryza sativa; assay: Safener indices, ratio of compound effect of Oryza sativa (rice) growth rate to relieving activity against bensulfuron-methyl induced injury to Oryza sativa growth rate at 0.1 uM
[4] = test system: Oryza sativa; assay: Safener indices, ratio of compound effect of Oryza sativa (rice) growth rate to relieving activity against bensulfuron-methyl induced injury to Oryza sativa growth rate at 1 uM
[5] = test system: Oryza sativa; assay: Relieving activity against bensulfuron-methyl induced injury to Oryza sativa (rice) assessed as growth rate at 1 uM (Rbv = 46 to 53%); format: functional
[6] = Hydrophobicity, log K of the compound; format: physicochemical; settings: octanol/water
[7] = test system: Oryza sativa; assay: Effect on Oryza sativa (rice) assessed as growth rate at 10 uM relative to control; format: organism-based; settings: in vivo
[8] = test system: Oryza sativa; assay: Relieving activity against bensulfuron-methyl induced injury to Oryza sativa (rice) assessed as growth rate at 10 uM (Rbv = 46 to 53%); format: functional
[9] = test system: Oryza sativa; assay: Effect on Oryza sativa (rice) assessed as growth rate at 1 uM relative to control; format: organism-based; settings: in vivo
[10] = test system: Oryza sativa; assay: Effect on Oryza sativa (rice) assessed as growth rate at 0.1 uM relative to control; format: organism-based; settings: in vivo

Row | Compound | Activity [1] [%] | Ratio [2] | Ratio [3] | Ratio [4] | Activity [5] [%] | log K [6] | Activity [7] [%] | Activity [8] [%] | Activity [9] [%] | Activity [10] [%]
1 | C[C@H](NC(=O)Nc1ccc(C(C)(C)C)cc1)c1ccccc1 | 52 | 53 | 4 | 37 | 65 | 0.673 | 64 | 68 | 88 | 100
2 | CCCCc1ccc(NC(=O)N[C@H](C)c2ccccc2)cc1 | 57 | 16 | 13 | 26 | 38 | 0.76 | 28 | 28 | 32 | 100
3 | CCCCc1ccc(NC(=O)N[C@@H](C)c2ccccc2)cc1 | 60 | 37 | 21 | 50 | 68 | 0.76 | 60 | 56 | 72 | 98
4 | CCCCCc1ccc(NC(=O)N[C@H](C)c2ccccc2)cc1 | 54 | 38 | 3 | 27 | 65 | 0.912 | 97 | 69 | 101 | 100
5 | CCCCCc1ccc(NC(=O)N[C@@H](C)c2ccccc2)cc1 | 55 | 43 | 9 | 16 | 59 | 0.912 | 93 | 71 | 98 | 98
6 | CCCCCCc1ccc(NC(=O)N[C@H](C)c2ccccc2)cc1 | 52 | 22 | 6 | 9 | 54 | 1.081 | 101 | 61 | 101 | 100
7 | CCCCCCc1ccc(NC(=O)N[C@@H](C)c2ccccc2)cc1 | 51 | 25 | 6 | 11 | 54 | 1.081 | 99 | 61 | 100 | 99
8 | CCCCCCCc1ccc(NC(=O)N[C@H](C)c2ccccc2)cc1 | 51 | 9 | 5 | 5 | 52 | 1.266 | 100 | 53 | 100 | 100
9 | CCCCCCCc1ccc(NC(=O)N[C@@H](C)c2ccccc2)cc1 | 51 | 21 | 4 | 9 | 53 | 1.266 | 99 | 59 | 99 | 100
10 | C[C@@H](NC(=O)Nc1ccccc1C(F)(F)F)c1ccccc1 | 55 | 42 | 10 | 11 | 54 | 0.456 | 54 | 58 | 95 | 99
11 | C[C@H](NC(=O)Nc1ccccc1C(F)(F)F)c1ccccc1 | 56 | 85 | 12 | 40 | 70 | 0.456 | 97 | 92 | 98 | 97
12 | C[C@@H](NC(=O)Nc1cccc(C(F)(F)F)c1)c1ccccc1 | 57 | 50 | 26 | 41 | 63 | 0.542 | 70 | 68 | 72 | 82
13 | C[C@H](NC(=O)Nc1cccc(C(F)(F)F)c1)c1ccccc1 | 62 | 66 | 26 | 53 | 75 | 0.542 | 92 | 82 | 93 | 94
14 | CCc1cccc(NC(=O)N[C@H](C)c2ccccc2)c1 | 54 | 29 | 8 | 36 | 59 | 0.489 | 36 | 42 | 71 | 97

Source: ChEMBL document CHEMBL3045406, “Enantioselective Relieving Activity of α-Methylbenzylphenylureas toward Bensulfuron-methyl Injury to Rice (Oryza sativa)” (Biosci Biotechnol Biochem, 1999)
